From patent publication US20080275224A1, “Cyanoborate, Fluoroalkylphosphate, Fluoroalkylborate or Imide Dyes” (priority 2003, published 2008)
Values belong to the compound of their own block, whether it stands above or below them.

What was measured:
[1] = Solubility investigations of the dyes prepared in accordance with Examples 31 to 34
[2] = Solubility in organic solvents (statements in the description)
physchem = conditions: water
[3] = acetonitrile, organic solvent or mixture, Solubility, CH3CN
[4] = dichloromethane, organic solvent or mixture, Solubility, CH2Cl2
[5] = ethanol, organic solvent or mixture, Solubility

solubility ([1]; Pentane): insoluble
solubility [1, 3]: > 2000 µg/mL
solubility [1, 4]: > 5000 µg/mL
solubility [1, 5]: > 3000 µg/mL
solubility ([1]; water, Solubility, H2O): < 10 µg/mL
Solubility in benzene ([2]; listed as Nile Blue FAB): soluble
Solubility in dimethyl carbonate ([2]; listed as Nile Blue FAB): readily or very readily soluble
Compound: CC[N+](CC)=c1ccc2nc3c(cc(N)c4ccccc43)oc-2c1 [Nile Blue [B(CF3)4]^−, Nile Blue as tetrakis(trifluoromethyl)borate]

Solubility in benzene ([2]; listed as Nile Blue Im): soluble
Solubility in dimethyl carbonate ([2]; listed as Nile Blue Im): readily or very readily soluble
Compound: CC[N+](CC)=c1ccc2nc3c(cc(N)c4ccccc43)oc-2c1 [Nile Blue [(CF3SO2)2N]^−]

solubility ([1]; H2O): insoluble
solubility ([1]; Pentane): insoluble
solubility [1, 3]: > 5000 µg/mL
solubility [1, 4]: > 10000 µg/mL
solubility [1, 5]: > 10000 µg/mL
Compound: CN(C)c1ccc(C(=C2C=CC(=[N+](C)C)C=C2)c2ccc(N(C)C)cc2)cc1 [Crystal Violet [B(CF3)4]^−, Crystal Violet as tetrakis(trifluoromethyl)borate]

solubility (physchem): < 10 µg/mL
Compound: Cc1cc2nc3cc(C)c(N)cc3[n+](-c3ccccc3)c2cc1N [Safranine O [B(CF3)4]^−, safranine O as tetrakis(trifluoromethyl)borate]

Solubility in benzene ([2]; listed as Nile Blue CAB): soluble
Solubility in dimethyl carbonate ([2]; listed as Nile Blue CAB): readily or very readily soluble
Compound: CC[N+](CC)=c1ccc2nc3c(cc(N)c4ccccc43)oc-2c1 [Nile Blue [B(CN)4]^−, Nile Blue as tetracyanoborate]

Solubility in benzene [2]: insoluble
Compound: CCN(CC)c1ccc2nc3ccc(N=Nc4ccc(N(C)C)cc4)cc3[n+](-c3ccccc3)c2c1.[Cl-] [Janus Green Cl^−, Janus Green, reference compound]

Solubility in benzene ([2]; listed as Nile Blue FAP): soluble
Solubility in dimethyl carbonate ([2]; listed as Nile Blue FAP): readily or very readily soluble
Compound: CC[N+](CC)=c1ccc2nc3c(cc(N)c4ccccc43)oc-2c1 [Nile Blue [(C2F5)3PF3]^−] [Nile Blue as tris(pentafluoroethyl)trifluorophosphate]

Solubility in benzene [2]: soluble
Compound: CCN(CC)c1ccc2nc3ccc(/N=N/c4ccc(N(C)C)cc4)cc3[n+](-c3ccccc3)c2c1 [Janus Green [(CF3SO2)2N]^−]

Solubility in benzene [2]: insoluble
Solubility in dimethyl carbonate ([2]; listed as Nile Blue with hydrogensulfate as anion): insoluble
Compound: CC[N+](CC)=c1ccc2nc3c(cc(N)c4ccccc43)oc-2c1 [Nile Blue Hydrogensulfate anion, Nile Blue hydrogensulfate, reference compound]
